Holding throughout (assay): NCI tumour cell line growth inhibition, 48 h
The subject of experiment [1] is COLO 205.
For experiment [2], the system named is OVCAR-4.
Experiment [3] concerns DU-145.
For experiment [4], the system named is MDA-MB-435.
Experiment [5] relates to SR.
Experiment [6] deals with KM12.
The test system of experiment [7] is K562.
Experiment [8] concerns PC-3.
Experiment [9] has as its system IGROV-1.
Experiment [10] concerns UACC-62.
Experiment [11] concerns UACC-257.
For experiment [12], the system named is NCI/ADR-RES.
Experiment [13] has as its system HCT-116.
For experiment [14], the system named is CCRF-CEM.
Experiment [15] deals with HT-29.
The test system of experiment [16] is ACHN.
For experiment [17], the system named is M14.
Experiment [18] relates to A549.
Experiment [19] has as its system MOLT-4.
In experiment [20] the test system is SF-539.

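All cell lines were grown in 96-well plates and treated with compound for 48 hours. GI50: concentration for 50% inhibition of growth.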 Active and inactive are the calls of the source. Rule as the data show it: active = GI50 up to about 1.1 µM and inactive = higher.

Take `CCN(CC)C(=O)CCN1CC1`: the GI50 in experiment [1], in experiment [2], in [3], in [4], in experiment [5] and in experiment [6] was > 10 µM (inactive) each time. Also, the GI50 in experiment [7], in [8], in experiment [9], in experiment [10], in experiment [11] and in [12] was > 10 µM (inactive) throughout. Moreover, the GI50 in experiment [13], in [14], in experiment [15], in experiment [16], in [17] and in [18] was > 10 µM (inactive) throughout. The GI50 in experiment [19] and in experiment [20] was > 10 µM (inactive) throughout.
Consider `COC(O)C(=O)c1c2c(cc3c1CCC3)CCCC2` (stereo not given), for which the GI50 in [1] is 6.62 µM (inactive); in experiment [2], 7.31 µM (inactive); in experiment [3] it was 14.1 µM (inactive); in [4], 17.4 µM (inactive); in [5], 4 µM (inactive); in experiment [6] it was 8.59 µM (inactive). For the same molecule, the GI50 in [7] was 3.07 µM (inactive); in [8], 4.32 µM (inactive); in experiment [9] it was 4.12 µM (inactive); in experiment [10], 3.47 µM (inactive); in experiment [11], 12.6 µM (inactive); in experiment [12] it was 14.7 µM (inactive). Also, the GI50 in [13] was 2.02 µM (inactive); in experiment [14] it was 2.39 µM (inactive); in [15] it was 2.69 µM (inactive); in experiment [16], 8.38 µM (inactive); in [17], 10.2 µM (inactive); in experiment [18] it was 18.6 µM (inactive). In addition, the GI50 is 3.38 µM (inactive) in [19] and 4.32 µM (inactive) in [20].
Turning to `COc1ccc2nc3c([N+](=O)[O-])ccc4c3c(c2c1)N=CN4CCCN(C)C`, the GI50 is 0.855 µM (active) in experiment [1]; 1.65 µM (inactive) in experiment [2]; 2.52 µM (inactive) in [3]; 2.54 µM (inactive) in [4]; 0.125 µM (active) in experiment [5]; 1.24 µM (inactive) in experiment [6]. The GI50 in experiment [7] was 0.488 µM (active); in experiment [8], 1.21 µM (inactive); in experiment [9] it was 0.855 µM (active); in experiment [10], 6.24 µM (inactive); in experiment [11], 3.78 µM (inactive); in experiment [12] it was 2.32 µM (inactive). In addition, the GI50 is 0.419 µM (active) in experiment [13]; 0.807 µM (active) in experiment [14]; 0.57 µM (active) in experiment [15]; 0.743 µM (active) in experiment [16]; 4.73 µM (inactive) in experiment [17]; 0.716 µM (active) in experiment [18]. For the same molecule, the GI50 in experiment [19] is 0.23 µM (active); in [20] it was 0.944 µM (active).
As for `COc1cc([N+](=O)[O-])ccc1NC1=CC(=O)CCC1`, the GI50 in experiment [1], in experiment [2], in [3], in experiment [4], in [5] and in experiment [6] was > 100 µM (inactive) each time. Besides, the GI50 in experiment [7], in experiment [8], in experiment [9], in experiment [10], in experiment [11] and in experiment [12] was > 100 µM (inactive) throughout. In addition, the GI50 in experiment [13], in [14], in experiment [15], in experiment [16], in experiment [17] and in [18] was > 100 µM (inactive) each time. The GI50 in experiment [19] and in [20] was > 100 µM (inactive) in each case.
Turning to `O=C(NC1C(=O)NC(CCc2ccccc2)NC1=O)OCc1ccccc1` (stereo not given), the GI50 in experiment [1], in experiment [2], in [3], in experiment [4], in [5] and in [6] was > 100 µM (inactive) throughout. Further, the GI50 in [7], in experiment [8], in [9], in experiment [10], in experiment [11] and in experiment [12] was > 100 µM (inactive) throughout. Besides, the GI50 in [13], in experiment [14], in [15], in [16], in [17] and in experiment [18] was > 100 µM (inactive) throughout. Moreover, the GI50 in experiment [19] and in experiment [20] was > 100 µM (inactive) each time.
Consider `Cn1c(CO)ccc1-c1ccc(-c2ccc(CO)[se]2)[se]1`, for which the GI50 in [1] is 1.77 µM (inactive); in experiment [2], 0.578 µM (active); in [3], 12.9 µM (inactive); in experiment [4] it was 3.08 µM (inactive); in experiment [5], 13.1 µM (inactive); in experiment [6] it was 21.4 µM (inactive). Further, the GI50 in experiment [7] is 1.35 µM (inactive); in experiment [8], 18.2 µM (inactive); in experiment [9], 0.0621 µM (active); in experiment [10], 6.95 µM (inactive); in [11], 0.192 µM (active); in experiment [12], 33.9 µM (inactive). Further, the GI50 was 0.859 µM (active) in experiment [13]; 1.8 µM (inactive) in [14]; 37.7 µM (inactive) in experiment [15]; 19.3 µM (inactive) in experiment [16]; 10.4 µM (inactive) in [17]; 15.4 µM (inactive) in experiment [18]. Besides, the GI50 is 3.76 µM (inactive) in [19] and 67 µM (inactive) in experiment [20].
Regarding `C=C1C(=O)O[C@@]23C1CC[C@@H](C)C2CC[C@@]1(C)OC31` (stereo not given in full), the GI50 in experiment [1] is 1.86 µM (inactive); in experiment [2], 8.91 µM (inactive); in experiment [3], 3.85 µM (inactive); in experiment [4], 4.25 µM (inactive); in [5], 3.71 µM (inactive); in experiment [6], 12.8 µM (inactive). The GI50 in experiment [7] was 7.78 µM (inactive); in experiment [8] it was 5.05 µM (inactive); in [9], 11.7 µM (inactive); in [10], 12.1 µM (inactive); in experiment [11], 6.75 µM (inactive); in experiment [12], 16.8 µM (inactive). The GI50 is 8.65 µM (inactive) in [13]; 3.42 µM (inactive) in experiment [14]; 5.86 µM (inactive) in experiment [15]; 12.4 µM (inactive) in [16]; 3.52 µM (inactive) in [17]; 21.2 µM (inactive) in [18]. Besides, the GI50 in experiment [19] was 3.61 µM (inactive); in experiment [20], 3.24 µM (inactive).
`CC(=O)OC(C)(C)CCC(=O)[C@](C)(O)[C@H]1[C@H](O)C[C@@]2(C)[C@@H]3CC=C4C(C)=C(OC5OC(CO)C(O)C(O)C5O)C(=O)C[C@@H]4[C@]3(C)C(=O)C[C@]12C` (stereo not given in full): the GI50 in experiment [1], in experiment [2], in [3], in experiment [4], in experiment [5] and in experiment [6] was > 100 µM (inactive) each time. For the same molecule, the GI50 in experiment [7], in [8], in experiment [9], in experiment [10], in [11] and in experiment [12] was > 100 µM (inactive) throughout. Besides, the GI50 in [13], in [14], in [15], in experiment [16], in experiment [17] and in [18] was > 100 µM (inactive) in each case. Also, the GI50 in experiment [19] and in experiment [20] was > 100 µM (inactive) throughout.
With `COc1ccc2ccccc2c1/C=C/C(=O)c1ccccc1`, the GI50 in experiment [1] was 3.25 µM (inactive); in experiment [2], 2.74 µM (inactive); in experiment [3], 2.4 µM (inactive); in experiment [4] it was 2.53 µM (inactive); in experiment [5] it was 1.06 µM (active); in experiment [6], 2.51 µM (inactive). Moreover, the GI50 was 1.93 µM (inactive) in [7]; 4 µM (inactive) in [8]; 4.03 µM (inactive) in experiment [9]; 2.89 µM (inactive) in experiment [10]; 4.05 µM (inactive) in experiment [11]; 3.01 µM (inactive) in experiment [12]. Besides, the GI50 in [13] was 2.99 µM (inactive); in [14] it was 1.65 µM (inactive); in experiment [15], 3.43 µM (inactive); in [16] it was 3.33 µM (inactive); in experiment [17], 3.13 µM (inactive); in experiment [18], 2.65 µM (inactive). Further, the GI50 in [19] is 2.84 µM (inactive); in experiment [20], 2.74 µM (inactive).
With `COc1cc2ccccc2c2cc([N+](=O)[O-])oc12`, the GI50 in experiment [1] is 0.379 µM (active); in [2], 3.48 µM (inactive); in experiment [3], 0.265 µM (active); in experiment [4], 0.214 µM (active); in [5] it was 0.0859 µM (active); in experiment [6], 1.43 µM (inactive). Moreover, the GI50 in experiment [7] was 0.319 µM (active); in experiment [8], 3.04 µM (inactive); in experiment [9], 1.25 µM (inactive); in [10], 0.809 µM (active); in experiment [11], 0.179 µM (active); in experiment [12], 1.43 µM (inactive). For the same molecule, the GI50 in experiment [13] was 0.249 µM (active); in experiment [14], 0.26 µM (active); in experiment [15] it was 0.406 µM (active); in [16] it was 0.174 µM (active); in [17], 0.142 µM (active); in [18], 0.294 µM (active). The GI50 in experiment [19] was 0.0792 µM (active); in [20] it was 0.91 µM (active).

Source of the values: ChEMBL document CHEMBL1201862, “PubChem BioAssay data set” (2004).
